Data set [1] deals with T1, Protein-tyrosine kinase 6 (Homo sapiens, UniProt Q13882). Nature of the data set: Inhibition of GST-tagged PTK6 (unknown origin) assessed as phosphorylated tyrosines after 20 mins by ELISA.
In data set [2] the target is T1, Protein-tyrosine kinase 6. Put plainly: Inhibition of PTK6 (unknown origin) expressed in HEK293 cells assessed as decrease in tyrosine phosphorylation by chemiluminescence assay. The class given is cell-based.
The target of data set [3] is Tyrosine-protein kinase Fyn (Homo sapiens, UniProt P06241). Nature of the data set: Inhibition of Fyn (unknown origin) expressed in HEK293 cells assessed as decrease in phosphorylation by chemiluminescence assay. In kind it is cell-based.
The subject of data set [4] is HFF. Put plainly: Cytotoxicity against human foreskin fibroblast up to 100 uM after 24 hrs by MTT assay. The class given is cell-based.
In data set [5] the target is Epidermal growth factor receptor (Homo sapiens, UniProt P00533).
Description: Inhibition of EGFR (unknown origin) expressed in HEK293 cells assessed as decrease in phosphorylation by chemiluminescence assay
The target of data set [6] is T2, Cytoplasmic tyrosine-protein kinase BMX (Homo sapiens, UniProt P51813).
T2 sequence (P51813 whole entry): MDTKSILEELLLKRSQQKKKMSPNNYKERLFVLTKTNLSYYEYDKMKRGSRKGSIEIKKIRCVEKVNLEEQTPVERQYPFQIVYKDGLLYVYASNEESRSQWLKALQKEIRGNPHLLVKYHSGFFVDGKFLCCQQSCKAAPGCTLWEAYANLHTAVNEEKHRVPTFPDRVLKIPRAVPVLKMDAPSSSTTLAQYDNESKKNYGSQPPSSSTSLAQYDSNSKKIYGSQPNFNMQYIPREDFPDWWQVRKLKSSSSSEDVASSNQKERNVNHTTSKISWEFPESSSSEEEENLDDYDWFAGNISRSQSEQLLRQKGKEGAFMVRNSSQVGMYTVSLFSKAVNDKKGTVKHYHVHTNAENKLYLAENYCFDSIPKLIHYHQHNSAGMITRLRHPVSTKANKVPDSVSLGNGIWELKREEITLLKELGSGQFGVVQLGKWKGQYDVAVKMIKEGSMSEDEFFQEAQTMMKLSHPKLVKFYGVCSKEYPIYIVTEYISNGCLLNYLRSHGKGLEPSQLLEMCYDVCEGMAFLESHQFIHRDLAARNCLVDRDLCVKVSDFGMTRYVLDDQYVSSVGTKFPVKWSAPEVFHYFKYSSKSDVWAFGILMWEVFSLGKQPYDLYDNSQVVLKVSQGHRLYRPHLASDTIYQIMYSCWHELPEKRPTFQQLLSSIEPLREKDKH
Put plainly: Inhibition of Bmx (unknown origin) expressed in HEK293 cells assessed as decrease in phosphorylation by chemiluminescence assay. The class given is cell-based.

The target in data set [7] is Proto-oncogene tyrosine-protein kinase Src (Homo sapiens, UniProt P12931). Put plainly: Inhibition of Src (unknown origin) expressed in HEK293 cells assessed as decrease in phosphorylation by chemiluminescence assay. The class given is cell-based.
Data set [8] concerns HFF. Nature of the data set: Cytotoxicity against human foreskin fibroblast after 24 hrs by MTT assay. The class given is cell-based.

The structures appear in SMILES notation.

T1 sequence (Q13882 whole entry): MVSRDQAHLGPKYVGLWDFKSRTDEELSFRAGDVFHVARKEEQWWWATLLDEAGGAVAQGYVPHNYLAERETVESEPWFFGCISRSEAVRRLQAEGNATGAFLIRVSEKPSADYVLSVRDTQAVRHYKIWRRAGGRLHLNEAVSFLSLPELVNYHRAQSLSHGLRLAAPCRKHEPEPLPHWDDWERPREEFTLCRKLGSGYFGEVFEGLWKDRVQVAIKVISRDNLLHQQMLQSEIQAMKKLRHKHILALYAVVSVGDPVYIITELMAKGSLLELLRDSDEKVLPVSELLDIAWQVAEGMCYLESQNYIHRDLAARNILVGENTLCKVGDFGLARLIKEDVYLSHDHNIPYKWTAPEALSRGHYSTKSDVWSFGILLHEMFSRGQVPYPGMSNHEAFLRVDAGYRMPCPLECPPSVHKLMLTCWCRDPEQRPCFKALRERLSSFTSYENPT
Chain of Tyrosine-protein kinase Fyn (P06241 whole entry): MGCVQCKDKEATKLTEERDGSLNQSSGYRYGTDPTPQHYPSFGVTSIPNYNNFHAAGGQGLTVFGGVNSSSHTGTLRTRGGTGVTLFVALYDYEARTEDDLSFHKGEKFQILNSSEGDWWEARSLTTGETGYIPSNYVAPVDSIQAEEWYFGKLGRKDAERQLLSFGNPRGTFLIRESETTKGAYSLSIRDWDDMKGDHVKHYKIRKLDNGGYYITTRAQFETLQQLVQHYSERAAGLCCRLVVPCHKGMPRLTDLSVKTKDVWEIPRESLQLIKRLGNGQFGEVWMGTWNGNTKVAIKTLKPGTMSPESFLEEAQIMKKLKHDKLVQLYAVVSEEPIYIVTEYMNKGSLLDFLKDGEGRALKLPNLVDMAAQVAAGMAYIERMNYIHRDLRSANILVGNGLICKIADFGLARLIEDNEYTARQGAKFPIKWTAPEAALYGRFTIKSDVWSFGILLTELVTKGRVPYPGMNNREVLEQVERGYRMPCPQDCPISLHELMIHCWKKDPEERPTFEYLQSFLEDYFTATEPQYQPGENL
Chain of Proto-oncogene tyrosine-protein kinase Src (P12931 2-536 limits assumed): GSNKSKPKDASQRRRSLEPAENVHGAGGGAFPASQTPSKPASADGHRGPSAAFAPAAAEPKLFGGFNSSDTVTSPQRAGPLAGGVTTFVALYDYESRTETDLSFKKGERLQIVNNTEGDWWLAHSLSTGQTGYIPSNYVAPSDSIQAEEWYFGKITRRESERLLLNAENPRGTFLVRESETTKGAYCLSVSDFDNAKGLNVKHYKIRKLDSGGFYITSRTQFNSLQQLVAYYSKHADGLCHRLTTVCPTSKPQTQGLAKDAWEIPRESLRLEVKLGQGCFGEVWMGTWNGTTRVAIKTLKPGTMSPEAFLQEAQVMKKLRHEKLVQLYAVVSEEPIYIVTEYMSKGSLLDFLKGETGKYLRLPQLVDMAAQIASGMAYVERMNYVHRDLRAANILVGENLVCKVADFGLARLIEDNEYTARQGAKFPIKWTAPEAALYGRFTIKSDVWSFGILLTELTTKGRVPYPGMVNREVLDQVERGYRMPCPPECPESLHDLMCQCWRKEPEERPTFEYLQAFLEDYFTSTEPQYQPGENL
Chain of Epidermal growth factor receptor (P00533 whole entry): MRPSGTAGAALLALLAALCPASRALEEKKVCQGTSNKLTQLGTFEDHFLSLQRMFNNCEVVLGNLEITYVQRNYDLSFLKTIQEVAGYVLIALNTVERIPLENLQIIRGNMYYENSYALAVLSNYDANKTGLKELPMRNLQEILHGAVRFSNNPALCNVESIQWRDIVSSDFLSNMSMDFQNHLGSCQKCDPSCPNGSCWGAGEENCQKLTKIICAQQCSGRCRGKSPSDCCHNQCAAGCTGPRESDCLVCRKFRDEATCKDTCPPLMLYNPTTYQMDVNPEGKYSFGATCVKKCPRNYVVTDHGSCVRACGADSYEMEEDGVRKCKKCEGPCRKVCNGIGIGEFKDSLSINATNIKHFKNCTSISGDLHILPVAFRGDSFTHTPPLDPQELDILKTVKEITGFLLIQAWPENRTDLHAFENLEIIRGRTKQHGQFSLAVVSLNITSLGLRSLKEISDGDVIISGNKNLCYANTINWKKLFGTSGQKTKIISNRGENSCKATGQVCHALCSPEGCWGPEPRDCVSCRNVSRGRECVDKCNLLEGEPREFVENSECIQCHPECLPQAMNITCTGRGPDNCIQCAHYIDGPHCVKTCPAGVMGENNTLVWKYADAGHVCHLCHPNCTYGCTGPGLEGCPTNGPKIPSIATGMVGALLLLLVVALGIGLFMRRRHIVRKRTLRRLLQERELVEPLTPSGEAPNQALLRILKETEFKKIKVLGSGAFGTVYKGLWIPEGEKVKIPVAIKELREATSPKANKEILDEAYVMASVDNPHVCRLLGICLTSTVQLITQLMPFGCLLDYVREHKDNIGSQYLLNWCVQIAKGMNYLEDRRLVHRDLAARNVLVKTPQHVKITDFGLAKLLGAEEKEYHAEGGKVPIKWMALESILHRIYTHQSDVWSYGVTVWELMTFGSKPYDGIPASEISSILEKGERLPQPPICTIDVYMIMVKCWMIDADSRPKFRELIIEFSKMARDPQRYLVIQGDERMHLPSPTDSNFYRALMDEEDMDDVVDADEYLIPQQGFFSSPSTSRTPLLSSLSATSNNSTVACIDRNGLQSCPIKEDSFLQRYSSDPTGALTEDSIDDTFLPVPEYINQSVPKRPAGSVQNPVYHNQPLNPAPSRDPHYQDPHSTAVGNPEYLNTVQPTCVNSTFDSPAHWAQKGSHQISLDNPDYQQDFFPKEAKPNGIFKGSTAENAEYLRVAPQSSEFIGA

For `O=c1[nH]c2ccc(/N=C/c3cc(Br)ccc3O)cc2[nH]1`, the concentration for half-maximal inhibition (IC50) was 1.9 µM in data set [1] and over 100 µM in data set [2].

`O=c1[nH]c2ccc(/N=C/c3ccccc3)cc2[nH]1`: the 50% inhibitory concentration (IC50) in data set [1] was over 10 µM.

As to `O=c1[nH]c2ccc(/N=C/c3ccccc3O)cc2[nH]1`, the IC50 in data set [1] is 2 µM; in data set [2], over 100 µM.

In the case of `COc1ccc(Br)cc1/C=N/c1ccc2[nH]c(=O)[nH]c2c1`, the IC50 in data set [1] is 17.1 µM; in data set [2], over 100 µM.

On to `COc1cc(Br)cc(/C=N/c2ccc3[nH]c(=O)[nH]c3c2)c1O`, for which the figures for the IC50 in data set [1] and in data set [2] were 4.73 µM and 52.4 µM, respectively.

Consider `COc1cc(Br)cc(/C=N/c2ccc3[nH]c(=O)[nH]c3c2)c1OC`, for which the IC50 in data set [1] is over 10 µM.

With `O=c1[nH]c2ccc(/N=C/c3cc(Cl)ccc3O)cc2[nH]1`, the half-inhibitory concentration (IC50) in data set [1] is 1.41 µM; in data set [2], over 100 µM.

With `COc1cccc(/C=N/c2ccc3[nH]c(=O)[nH]c3c2)c1O`, the IC50 in data set [1] was over 10 µM.

On to `COc1cc(Cl)cc(/C=N/c2ccc3[nH]c(=O)[nH]c3c2)c1O`, for which the results for the half-inhibitory concentration (IC50) in data set [1] and in data set [2] were 1.68 µM and 74 µM, respectively.

For `COc1cc(I)cc(/C=N/c2ccc3[nH]c(=O)[nH]c3c2)c1O`, the 50% inhibitory concentration (IC50) in data set [1] worked out at 4.98 µM; in data set [2] it was 58.1 µM.

In the case of `CCOc1cc(Br)cc(/C=N/c2ccc3[nH]c(=O)[nH]c3c2)c1O`, the IC50 in data set [1] amounted to 5.83 µM; in data set [2], 23.5 µM.

Regarding `CCOc1cccc(/C=N/c2ccc3[nH]c(=O)[nH]c3c2)c1O`, the IC50 in data set [1] was over 10 µM.

With `CCOc1cc(Cl)cc(/C=N/c2ccc3[nH]c(=O)[nH]c3c2)c1O`, the results for the 50% inhibitory concentration (IC50) in data set [1] and in data set [2] were 1.99 µM and 51.2 µM, respectively.

For `O=c1[nH]c2ccc(/N=C/c3cc(Br)cc(Br)c3O)cc2[nH]1`, the half-maximal inhibitory concentration (IC50) in data set [1] came to 5.6 µM; in data set [2] it was 49 µM.

In the case of `O=c1[nH]c2ccc(/N=C/c3ccc(O)cc3O)cc2[nH]1`, the IC50 in data set [1] is over 10 µM.

For `COc1ccc(/C=N/c2ccc3[nH]c(=O)[nH]c3c2)c(O)c1`, in data set [1], the IC50 is over 10 µM.

Turning to `O=c1[nH]c2ccc(/N=C/c3c(O)cccc3Br)cc2[nH]1`, the half-inhibitory concentration (IC50) came out at 1.35 µM in data set [1] and 24.5 µM in data set [2].

Take `COc1ccc(Br)c(/C=N/c2ccc3[nH]c(=O)[nH]c3c2)c1O`: the half-maximal inhibitory concentration (IC50) turned out to be 3.9 µM in data set [1] and 16.6 µM in data set [2].

With `O=c1[nH]c2ccc(/N=C/c3c(O)c(Br)cc(Br)c3Br)cc2[nH]1`, the half-maximal inhibitory concentration (IC50) in data set [1] stood at 0.41 µM; in data set [2], 11.8 µM.

Turning to `COc1cc(Br)c(Br)c(/C=N/c2ccc3[nH]c(=O)[nH]c3c2)c1O`, the concentration for half-maximal inhibition (IC50) is 0.12 µM in data set [1]; 38.7 µM in data set [3]; 88.7 µM in data set [5]; 38.6 µM in data set [6]; over 100 µM in data set [7]; 1.46 µM in data set [2]. Also, the Activity entry with HFF [4] and with HFF [8] was “Toxic” in each case.

As for `CCOc1cc(Br)c(Br)c(/C=N/c2ccc3[nH]c(=O)[nH]c3c2)c1O`, the IC50 in data set [1] was 0.52 µM; in data set [3], 68.5 µM; in data set [5], 76.7 µM; in data set [6], 42.3 µM; in data set [7], over 100 µM; in data set [2], 1.6 µM. The Activity result with HFF [4] is “Non-toxic”.

With `CCOc1cc(Cl)c(Cl)c(/C=N/c2ccc3[nH]c(=O)[nH]c3c2)c1O`, the IC50 in data set [1] was 1.29 µM; in data set [2] it was 3.48 µM.

`COc1cc(Br)c(Br)c(CNc2ccc3[nH]c(=O)[nH]c3c2)c1O`: the half-maximal inhibitory concentration (IC50) in data set [1] is over 10 µM.

As for `CCOc1cc(Br)c(Br)c(CNc2ccc3[nH]c(=O)[nH]c3c2)c1O`, the IC50 in data set [1] was 4.79 µM.

In the case of `COc1cc(Br)c(Br)c(/C=N/c2ccc3[nH]ccc3c2)c1O`, the IC50 in data set [1] amounted to 0.27 µM; in data set [2] it was 3.49 µM.

Regarding `COc1cc(Br)c(Br)c(/C=N/c2ccc3[nH]cnc3c2)c1O`, the IC50 is 0.2 µM in data set [1] and 5.52 µM in data set [2].

For the compound `COc1cc(Br)c(Br)c(/C=N/c2ccc3scnc3c2)c1O`, the IC50 in data set [1] was found to be 1.3 µM; in data set [2], 4.61 µM.

On to `CCOc1cc(Br)c(Br)c(/C=N/c2ccc3[nH]ccc3c2)c1O`, for which the IC50 in data set [1] stood at 0.36 µM; in data set [2], 7.58 µM.

Turning to `CCOc1cc(Br)c(Br)c(/C=N/c2ccc3[nH]cnc3c2)c1O`, the values for the half-inhibitory concentration (IC50) in data set [1] and in data set [2] were 0.13 µM and 4.71 µM, respectively.

With `CCOc1cc(Br)c(Br)c(/C=N/c2ccc3scnc3c2)c1O`, the IC50 came out at 1.17 µM in data set [1] and 2.54 µM in data set [2].

Regarding `N#C/C(=C\c1c[nH]c2ccccc12)C(=O)c1ccc(O)c(O)c1`, the IC50 is 2.32 µM in data set [1] and 53.2 µM in data set [2].

For the compound `O=c1c(-c2ccc(O)cc2)coc2cc(O)cc(O)c12` [GENISTEIN], the values for the half-inhibitory concentration (IC50) in data set [3], in data set [6] and in data set [7] were 58.2 µM, 68 µM and over 100 µM, respectively.

Source of the values: ChEMBL document CHEMBL3352553, “Discovery of (E)-5-(benzylideneamino)-1H-benzo[d]imidazol-2(3H)-one derivatives as inhibitors for PTK6” (Bioorg Med Chem Lett, 2014).
